For series [1], the system named is canine-colonoid-derived monolayers. The series can be described thus: Bidirectional transport (Papp) across canine-colonoid-derived monolayers. It is filed as in vitro ADME, dog. The note with it: for Papp A→B / Papp B→A: Dog colonoid, read-out: Papp × 10^−6; for Papp B→A: BL→AP pH 7.4/7.4, individual wells.
Experimental: (§1) After seven days of culture (Figure 3A), the 3D colonoids were harvested from the Matrigel® using the Corning™ cell recovery solution. Matrigel® plugs were dissociated by repeated pipetting after adding 500 μL of pre-chilled cell recovery solution into each well, and the plate was incubated for 30 min at 4 °C to dissolve the Matrigel®. The mixture was then transferred to a 15 mL tube and centrifuged at 100× g for 5 min at 4 °C. The organoid pellet was resuspended in 1 mL TrypLE Express and incubated at 37 °C for 10 min with shaking. To stop the TrypLE action, 6 mL of DMEM/F12 was added to the mixture before centrifugation at 100× g for 5 min at 4 °C. The supernatant was removed, and the pellet was resuspended with CMGF+ media. The harvested colonoid cell suspension was filtered through a sterile cell strainer (40 µm nylon mesh, Thermo Fisher Scientific) to obtain a single-cell suspension. The viability of dissociated cells was assessed by the trypan blue exclusion test [58, 59], and cells were counted manually using a hemocytometer (Hausser Scientific, Horsham, PA, USA). The Transwell™ inserts were pre-coated with Matrigel® (100 μg/mL; Corning®) and rat tail collagen I (30 μg/mL; Fisher Scientific) to promote adhesion, growth, and differentiation in CMGF+ media at 37 °C for 1 h. Dissociated colonoid cells (Passages #15–20) were seeded at a density of 100,000 cells/cm^2 in pre-coated inserts and allowed to grow and differentiate in the presence of CMGF+ media for 10 to 12 days before the experiments (Figure 3B). The CMGF+ culture medium was changed every other day. The structural integrity of the cell monolayer was monitored every other day for up to two weeks by phase-contrast microscopy.
(§2) All transport experiments were conducted at room temperature following the conditions outlined in earlier reports during sampling and incubation [66, 67, 68]. The culture media were aspirated from both AP (0.2 mL) and BL (0.7 mL) chambers. For both the canine colonoid and the Caco-2 monolayer, the BL chambers with HBSS buffer at pH 7.4 (0.7 mL) and the AP chambers with appropriate HBSS buffer at pH 6.8 or 7.4 (0.2 mL) (canine) or pH 6.8 (0.2 mL) (Caco-2 cells) were rinsed and equilibrated at room temperature for 30 min. Two to three wells per drug/pH/direction were used for data generation.
(§3) After Caco-2 and canine colonoid monolayers were equilibrated in the transport buffer for 30 min, the buffer was aspirated from the AP (0.2 mL) and BL (0.7 mL) chambers. The media of the AP chamber were replaced with 0.2 mL of the drug solution prepared in an appropriate transport buffer. HBSS buffer with pH 7.4 was added to the BL chambers. At pre-defined time points (15, 30, 45, 60, 90, and 120 min), samples of 100 µL buffer were collected from the receiver chamber (BL) and replaced with the same volume (i.e., 100 µL) of transport buffer at pH 7.4. For the AP side, drug concentrations of the donor solution were measured prior to introduction into the well and at the end of the study (120 min). In so doing, no buffer replacement was needed. All study samples were labeled and stored at −80 °C until further analysis.
(§4) The same procedures described above for studying AP→BL permeability were followed when studying BL→AP, with the only difference being that the donor chamber was now the BL side and the receiver chamber was now the AP side. At pre-determined time intervals (15, 30, 45, 60, 90, and 120 min), 100 µL of buffer was removed from the receiver chamber (AP) and replaced with the same volume (i.e., 100 µL) of transport buffer with the specified pH. The collected samples were stored at −80 °C until further analysis by mass spectrometry (details below).
For series [2] the following is noted: low permeability, high solubility; cited from earlier work.
Series [3] is described as follows: Bidirectional transport (Papp) across Caco-2 cell monolayers. The following applies: human; for Papp A→B at 120 min, 0.04 mg/mL: Caco-2, pH 6.8, 0.04 mg/mL (58.4 μM); for Papp A→B at 120 min, 0.4 mg/mL: Caco-2, pH 6.8, 0.4 mg/mL (584.1 μM); for Papp B→A at 120 min, 0.04 mg/mL: Caco-2, pH 7.4, 0.04 mg/mL (58.4 μM); for Papp B→A at 120 min, 0.4 mg/mL: Caco-2, pH 7.4, 0.4 mg/mL (584.1 μM); for Papp A→B at 120 min, 1 mg/mL: Caco-2, pH 6.8, 1 mg/mL (3380 μM); for Papp B→A at 120 min, 1 mg/mL: Caco-2, pH 7.4, 1 mg/mL (3380 μM). It is filed as in vitro ADME, human. A general note: Caco-2 monolayers are a common model of the intestinal barrier.
Experimental: The harvested Caco-2 cell suspension was then filtered through a sterile cell strainer (40 µm nylon mesh, Thermo Fisher Scientific) to obtain a single-cell suspension. Caco-2 cell viability and concentration were determined by a trypan blue exclusion test [57, 58]. Single Caco-2 cells (passages 50–55) were seeded at a density of 75,000 cells/cm^2 in the apical chamber of the insert and cultured in CCCM media. The culture medium in both apical and basolateral chambers was changed every other day. In the transport studies, the monolayers were utilized 18 to 20 days after plating.
as §2, §3, §4
The uncorrected Papp estimates for the three drugs of interest (Papp-uncorrected, cm/s) were calculated as follows (Equation (2)) [7]: (2) Papp-uncorrected =VR/(A×C0)×dC/dt where VR is the volume in the receiver chamber (mL), A is the surface area of the filter ( 0.33 cm^2 ), C0 is the initial drug concentration (µM) in the donor chamber, and dC/dt is the maximum slope of the line defining the cumulative drug concentration (mg/mL) vs. time (min) in the receiver compartment. […] The estimated concentrations in the receiver compartment were corrected for drug removed during prior samples.
These Papp value estimates were further corrected for the percent recovery (Rec (%)) in each well [71, 72] as follows (Equation (3)): (3) Rec (%) =mg donor hr 2+total mg receiver hr 2/mg drug introduced into the donor compartment at hr 0
The corrected Papp estimates reported herein were, therefore, calculated as follows (Equation (4)):(4) Papp= Papp−uncorrected /Rec (%)

Another series relates to Caco-2 cell monolayers. The series is described as above. It is filed as in vitro ADME, human.
Series [4] can be described thus: Bidirectional transport (Papp) across canine-colonoid-derived monolayers. The class given is in vitro ADME, dog. The note with it: dog, Dog colonoid.
Experimental: as §1, §2, §3, §4
Details of series [5]: method as in earlier work. The note with it: ref 65 (PubChem), cited from earlier work.
The next series concerns P-gp. The following applies: cited from earlier work.
[6] abbreviates: Human Caco-2, AP→BL pH 6.8/7.4, N = 2, read-out: Papp × 10^−6 Avg.
[7] abbreviates: Human Caco-2, AP→BL pH 6.8/7.4, individual wells, read-out: Papp × 10^−6.
Where [8] appears, read: Human Caco-2, BL→AP pH 7.4/7.4, N = 2, read-out: Papp × 10^−6 Avg.
Setting [9] is: Human Caco-2, BL→AP pH 7.4/7.4, individual wells, read-out: Papp × 10^−6.

Where two headings read alike, the source gives them in different places. Bounds are passed on as bounds.

Regarding `CC(C)NCC(O)COc1ccc(CC(N)=O)cc1` (centres unmarked) [Atenolol], the “drug in the receiver compartment” value in series [1] (2.0 mg/mL, canine colonoids, irrespective of pH or direction (AP→BL or BL→AP)) was “not detectable”. In addition, in series [2], the “BCS Class” value is reported as “Class III”.

Consider `COCCc1ccc(OCC(O)CNC(C)C)cc1` (centres unmarked) [Metoprolol], for which the Papp A→B at 120 min, 0.04 mg/mL turned out to be 15.3 ×10⁻⁶ cm/s in series [3] (setting [6]); 17.5 ×10⁻⁶ cm/s in series [3] (setting [7]); 17.7 ×10⁻⁶ cm/s in series [4] (pH 6.8, 0.04 mg/mL (58.4 μM), AP→BL pH 6.8/7.4, N = 2, read-out: Papp × 10^−6 Avg); 16.8 ×10⁻⁶ cm/s in series [4] (pH 6.8, 0.04 mg/mL (58.4 μM), AP→BL pH 6.8/7.4, individual wells, read-out: Papp × 10^−6); 13.5 ×10⁻⁶ cm/s in series [4] (pH 7.4, 0.04 mg/mL (58.4 μM), AP→BL pH 7.4/7.4, N = 2, read-out: Papp × 10^−6 Avg); 13.4 ×10⁻⁶ cm/s in series [4] (pH 7.4, 0.04 mg/mL (58.4 μM), AP→BL pH 7.4/7.4, individual wells, read-out: Papp × 10^−6). Further, the Papp A→B at 120 min, 0.4 mg/mL in series [3] (setting [6]) was 17.9 ×10⁻⁶ cm/s; in series [3] (setting [7]) it was 19.3 ×10⁻⁶ cm/s; in series [4] (pH 6.8, 0.4 mg/mL (584.1 μM) ± FITC-dextran 200 µg/mL, AP→BL pH 6.8/7.4, individual wells, read-out: Papp × 10^−6) it was 8.33 ×10⁻⁶ cm/s; in series [4] (pH 6.8, 0.4 mg/mL (584.1 μM) ± FITC-dextran 200 µg/mL, AP→BL pH 6.8/7.4, read-out: Papp × 10^−6 Avg) it was 8.72 ×10⁻⁶ cm/s; in series [4] (pH 7.4, 0.4 mg/mL (584.1 μM) ± FITC-dextran 200 µg/mL, AP→BL pH 7.4/7.4, individual wells, read-out: Papp × 10^−6) it was 9.9 ×10⁻⁶ cm/s; in series [4] (pH 7.4, 0.4 mg/mL (584.1 μM) ± FITC-dextran 200 µg/mL, AP→BL pH 7.4/7.4, read-out: Papp × 10^−6 Avg), 10.5 ×10⁻⁶ cm/s. Further, the Papp B→A at 120 min, 0.04 mg/mL came to 17.7 ×10⁻⁶ cm/s in series [3] (setting [8]); 16.3 ×10⁻⁶ cm/s in series [3] (setting [9]); 11.9 ×10⁻⁶ cm/s in series [4] (pH 7.4, 0.04 mg/mL (58.4 μM), BL→AP pH 7.4/7.4, N = 2, read-out: Papp × 10^−6 Avg); 11.2 ×10⁻⁶ cm/s in series [4] (pH 7.4, 0.04 mg/mL (58.4 μM), BL→AP pH 7.4/7.4, individual wells, read-out: Papp × 10^−6). In addition, the Papp B→A at 120 min, 0.4 mg/mL in series [3] (setting [8]) was 13.1 ×10⁻⁶ cm/s; in series [3] (setting [9]), 13.8 ×10⁻⁶ cm/s; in series [4] (pH 7.4, 0.4 mg/mL (584.1 μM) ± FITC-dextran 200 µg/mL, BL→AP pH 7.4/7.4, individual wells, read-out: Papp × 10^−6) it was 9.88 ×10⁻⁶ cm/s; in series [4] (pH 7.4, 0.4 mg/mL (584.1 μM) ± FITC-dextran 200 µg/mL, BL→AP pH 7.4/7.4, read-out: Papp × 10^−6 Avg), 9.91 ×10⁻⁶ cm/s. For the same compound, the “Papp × 10^−6” value in the series on Caco-2 cell monolayers (0.04 mg/mL (58.4 μM), Human Caco-2, AP→BL pH 6.8/7.4, individual wells) is on record as 13.13 × 10^−6 cm/s; with Caco-2 cell monolayers (0.04 mg/mL (58.4 μM), Human Caco-2, BL→AP pH 7.4/7.4, individual wells), 19.03 × 10^−6 cm/s; with Caco-2 cell monolayers (0.4 mg/mL (584.1 μM), Human Caco-2, AP→BL pH 6.8/7.4, individual wells), 16.45 × 10^−6 cm/s; with Caco-2 cell monolayers (0.4 mg/mL (584.1 μM), Human Caco-2, BL→AP pH 7.4/7.4, individual wells), 12.37 × 10^−6 cm/s. For the same compound, the Papp A→B turned out to be 18.5 ×10⁻⁶ cm/s in series [1] (0.04 mg/mL (58.4 μM), AP→BL pH 6.8/7.4, individual wells); 13.5 ×10⁻⁶ cm/s in series [1] (0.04 mg/mL (58.4 μM), AP→BL pH 7.4/7.4, individual wells); 9.1 ×10⁻⁶ cm/s in series [1] (0.4 mg/mL (584.1 μM) ± FITC-dextran 200 µg/mL, AP→BL pH 6.8/7.4, individual wells); 11.2 ×10⁻⁶ cm/s in series [1] (0.4 mg/mL (584.1 μM) ± FITC-dextran 200 µg/mL, AP→BL pH 7.4/7.4, individual wells). Further, the Papp B→A in series [1] (0.04 mg/mL (58.4 μM)) worked out at 12.7 ×10⁻⁶ cm/s; in series [1] (0.4 mg/mL (584.1 μM) ± FITC-dextran 200 µg/mL), 9.94 ×10⁻⁶ cm/s. In addition, the “Aqueous Solubility (25 °C)” value in series [5] (25 °C) is more than 1000 mg/mL. The log partition coefficient (Log P) in series [5] is 2.15. Further, the P-gp substrate status entry with P-gp was “not a substrate for P-gp transport”.

`CC(C)NCC(O)COc1cccc2ccccc12` (centres unmarked) [Propranolol]: the Papp A→B at 120 min, 1 mg/mL is 12.4 ×10⁻⁶ cm/s in series [3] (setting [6]); 12.1 ×10⁻⁶ cm/s in series [3] (setting [7]); 11.6 ×10⁻⁶ cm/s in series [4] (pH 6.8, 1 mg/mL (3380 μM), AP→BL pH 6.8/7.4, N = 2, read-out: Papp × 10^−6 Avg); 12.2 ×10⁻⁶ cm/s in series [4] (pH 6.8, 1 mg/mL (3380 μM), AP→BL pH 6.8/7.4, individual wells, read-out: Papp × 10^−6); 12 ×10⁻⁶ cm/s in series [4] (pH 7.4, 1 mg/mL (3380 μM), AP→BL pH 7.4/7.4, N = 2, read-out: Papp × 10^−6 Avg); 12 ×10⁻⁶ cm/s in series [4] (pH 7.4, 1 mg/mL (3380 μM), AP→BL pH 7.4/7.4, individual wells, read-out: Papp × 10^−6). Also, the Papp B→A at 120 min, 1 mg/mL came out at 11.9 ×10⁻⁶ cm/s in series [3] (setting [8]); 11.4 ×10⁻⁶ cm/s in series [3] (setting [9]); 11.5 ×10⁻⁶ cm/s in series [4] (pH 7.4, 1 mg/mL (3380 μM), BL→AP pH 7.4/7.4, N = 2, read-out: Papp × 10^−6 Avg); 10.9 ×10⁻⁶ cm/s in series [4] (pH 7.4, 1 mg/mL (3380 μM), BL→AP pH 7.4/7.4, individual wells, read-out: Papp × 10^−6). Also, the “Papp × 10^−6” value in the series with Caco-2 cell monolayers (1 mg/mL (3380 μM), Human Caco-2, AP→BL pH 6.8/7.4, individual wells) is on record as 12.75 × 10^−6 cm/s; in the series on Caco-2 cell monolayers (1 mg/mL (3380 μM), Human Caco-2, BL→AP pH 7.4/7.4, individual wells) it was 12.43 × 10^−6 cm/s. For the same compound, the Papp A→B was 11.1 ×10⁻⁶ cm/s in series [1] (1 mg/mL (3380 μM), AP→BL pH 6.8/7.4, individual wells) and 12 ×10⁻⁶ cm/s in series [1] (1 mg/mL (3380 μM), AP→BL pH 7.4/7.4, individual wells). The Papp B→A in series [1] (1 mg/mL (3380 μM)) amounted to 12 ×10⁻⁶ cm/s.

The Log P is a log measure of how a compound divides between an organic and an aqueous phase.

Source of the values: publication PMC10177590, “Canine Intestinal Organoids as a Novel In Vitro Model of Intestinal Drug Permeability: A Proof-of-Concept Study” (Cells, 2023).
